For five molecules, mass density and refractive index results are on record in the NIST ThermoML archive (doi:10.1021/je700119m).

The conditions of series [1]: 298.15 K, 101.33 kPa, Liquid.
Series [2] in a line: refractive index (Na D-line) (dimensionless). Particulars: 298.15 K; 101.33 kPa; Liquid; Standard Abbe refractometry.

Numbers after ± are expanded uncertainties.

What is called mass density is the mass of a sample divided by its volume. What is called refractive index is a measure of how strongly the sample bends light.

For `CCC(C)=O` [butanone], the mass density in series [1] amounted to 799.7 ± 0.6 kg/m3. Further, the refractive index in series [2] turned out to be 1.37618 ± 0.00068.

On to `COS(=O)(=O)[O-].Cn1cc[n+](C)c1` [1,3-dimethylimidazolium methylsulfate], for which, in series [1], the mass density was determined as 1327.2 ± 2.7 kg/m3. The refractive index in series [2] is reported as 1.4827 ± 0.00078.

As for `CC(C)O` [propan-2-ol], in series [1] (Vibrating tube method), the mass density is 781 ± 0.4 kg/m3. Moreover, the refractive index in series [2] is recorded as 1.37496 ± 0.00068.

As to `CCO` [ethanol], in series [1], the mass density stood at 785.1 ± 0.5 kg/m3. Further, in series [2], the refractive index is given as 1.35929 ± 0.00068.

For `CCCCn1cc[n+](C)c1.F[P-](F)(F)(F)(F)F` [1-butyl-3-methylimidazolium hexafluorophosphate], the mass density in series [1] came out at 1367.3 ± 2.9 kg/m3. Also, the refractive index in series [2] came out at 1.40937 ± 0.00078.
